Literature values, collected in patent US8435497B2, “Formoterol of and ciclesonide combination” (Takeda GmbH, priority 2003, dated 2013).

Key:
[1] = not given; remark: listed apart in the source
[2] = relative to budesonide

Question: Which “metabolism by liver oxidases” value (liver oxidases) does the source give for CC(C)C(=O)OCC(=O)[C@@]12O[C@H](C3CCCCC3)O[C@@H]1C[C@H]1[C@@H]3CCC4=CC(=O)C=C[C@]4(C)[C@H]3[C@@H](O)C[C@@]12C [Ciclesonide, [11β,16α(R)]-16,17-[(Cyclohexylmethylen)bis(oxy)]-11-hydroxy-21-(2-methyl-1-oxopropoxy)pregna-1,4-dien-3,20-dion] here?
Answer: very high

Question: And the “concentration of the drug in the lungs” value (lungs)?
Answer: high

Question: What about the “absorption after oral administration” value (oral administration) of the same compound?
Answer: only moderately absorbed

Question: And the plasma half-life (plasma)?
Answer: low plasma half-life

Question: What about the systemic activity ([1]; in vivo) of the same compound?
Answer: low systemic activity

Question: What about the “systemic activity compared with budesonide” value ([1]; relative to budesonide) of the same compound?
Answer: three times lower

Question: What about the “anti-inflammatory activity compared with budesonide” value [2] of the same compound?
Answer: higher
